Test results as given in PubChem BioAssay AID2060885 (Molecular Pharmacology Branch, DTP, NCI, 2025).

Tested on: NCI-H23 complex spheroids with HUVEC/MSC, viability
Test: Anticancer human tumor NCI-H23 cell line growth inhibition [RAS];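 on viability, T/C: 100% = DMSO vehicle control viability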
Conditions: for IC50: curve of first compound; for viability, T/C: stronger effect = lower value
Text: RAS pathway inhibitors in Combinations in Complex Spheroids
A high-throughput screen of multi-cell type tumor spheroids was designed to identify active combinations of RAS pathway inhibitors and targeted small molecules. Complex spheroids include a stromal component modeled by human endothelial cells (HUVEC) and fibroblasts modeled by human mesenchymal stem cells (MSCs). The concentration ranges selected for each drug and investigational agent were based upon clinically achievable concentrations if the clinical Cmax of the agent was known.
Compounds. The drugs and investigational agents: abemaciclib (NSC768073), cobimetinib (NSC768068), divarasib (GDC6063, NSC841802), docetaxel (NSC628503), GDC-1971 (RLY-1971, NSC841576), gemcitabine (NSC613327), inavolisib (NSC800729), ipatasertib (NSC767898), KB-0742 (NSC834161), MRTX-1133 (NSC836407), osimertinib (NSC779217), RMC-4630 (NSC839698), RMC-6236 (NSC851965), RMC-6291 (NSC852671), Ro-3306 (NSC812927), sapanisertib (NSC764658), SN-38 (NSC673596), staurosporine (NSC755774), SY5609 (NSC837396), and tovorafenib (DAY101, NSC766906), were obtained from the National Cancer Institute (NCI) Developmental Therapeutics Program Chemical Repository. The FDA-approved anticancer drug set is available from the NCI Developmental Therapeutics Program. […] The stock solutions were prepared in dimethyl sulfoxide (DMSO, Sigma-Aldrich, St. Louis, MO, cat. D2650) at 800-fold the tested concentration and stored at -70 degrees C prior to their use. All drugs and investigational agents were tested over a range starting from a high concentration at or near the clinical Cmax and decreasing in half-log increments. If the clinical Cmax for an agent had not been determined, the highest concentration tested was 10 microM.
Cell Culture. All cells were maintained in an incubator at 37 degrees C and 5% CO2 with 95% humidity. The PDC lines were cultured according to standard operating procedures established by the NCI PDMR. All PDCs were thawed and cultured in Matrigel-coated flasks prepared with a working solution of 1X Ham's F-12 nutrient mix, without supplementation (Invitrogen, Waltham, MA, cat. 11765054), 100 U/mL penicillin-streptomycin (Invitrogen, cat. 15140122), and 2.5% Matrigel (Corning Inc., Corning, NY, cat. 354248) for the first three passages. The 362531-283-R-J2-PDC and 782815-120-R-J1-PDC lines were cultured in 6C/Colon 1B media, which includes advanced DMEM/F-12 (Thermo Fisher Scientific, cat. 12634028), 10 mM HEPES (Thermo Fisher Scientific, cat. 15630080), 1X GlutaMAX supplement (Thermo Fisher Scientific, cat. 35050061), 0.1 mg/mL primocin (InvivoGen, San Diego, CA, cat. ant-pm-2), 10% defined fetal bovine serum, heat inactivated (HyClone Laboratories Inc., Logan, UT, cat. SH30070.03HI), 50% L-WRN conditioned media (ATCC, cat. CRL-3276), 1.25 mM N-Acetyl-L-cysteine (Sigma-Aldrich, cat. A9165), 10 mM nicotinamide (Sigma-Aldrich, cat. N0636), 1X B-27 supplement (Thermo Fisher Scientific, cat. 17504044), 1X N-2 supplement (Thermo Fisher Scientific, cat. 17502048), 50 ng/mL human EGF (Thermo Fisher Scientific, cat. PHG0311), and 10 microM Y-27632 dihydrochloride (Tocris Bioscience, cat. 1254). The K12877-001-R-J1-PDC line was cultured in 6I media, which includes all 6C/Colon 1B media plus 10 ng/mL human FGF-10 (PeproTech, cat. 100-26), 1 ng/mL human FGF-2 (PeproTech, cat. 100-18B), 1 µM prostaglandin E2 (Tocris Bioscience, cat. 2296), […] hydrocortisone (Sigma-Aldrich, cat. H4001), and […] bovine insulin (Sigma-Aldrich, cat. I6634). The K86415-001-R-J1-PDC line was cultured in 6D media, which includes all 6C/Colon 1B media components minus the L-WRN conditioned media. The 485176-168-R4-J1-PDC was cultured in PANC media, which includes all 6C/Colon 1B media plus 100 ng/mL human FGF-10 (PeproTech, cat. 100-26), 500 nM SB-431542 (Selleckchem, cat. S1067), and 10 nM gastrin (Tocris Bioscience, cat. 3006). […]

[1] = second compound 0.000949 µM, first compound 0.0316 µM
[2] = second compound 0.000949 µM, first compound 0.1 µM
[3] = second compound 0.000949 µM, first compound 0.316 µM
[4] = second compound 0.000949 µM, first compound 1 µM
[5] = second compound 0.003 µM, first compound 0.0316 µM
[6] = second compound 0.003 µM, first compound 0.1 µM
[7] = second compound 0.003 µM, first compound 0.316 µM
[8] = second compound 0.003 µM, first compound 1 µM
[9] = second compound 0.00949 µM, first compound 0.0316 µM
[10] = second compound 0.00949 µM, first compound 0.1 µM
[11] = second compound 0.00949 µM, first compound 0.316 µM
[12] = second compound 0.00949 µM, first compound 1 µM
[13] = second compound 0.03 µM, first compound 0.0316 µM
[14] = second compound 0.03 µM, first compound 0.1 µM
[15] = second compound 0.03 µM, first compound 0.316 µM
[16] = second compound 0.03 µM, first compound 1 µM
[17] = second compound 0.0949 µM, first compound 0.0316 µM
[18] = second compound 0.0949 µM, first compound 0.1 µM
[19] = second compound 0.0949 µM, first compound 0.316 µM
[20] = second compound 0.0949 µM, first compound 1 µM
[21] = second compound 0.3 µM, first compound 0.0316 µM
[22] = second compound 0.3 µM, first compound 0.1 µM
[23] = second compound 0.3 µM, first compound 0.316 µM
[24] = second compound 0.3 µM, first compound 1 µM

C[C@@H](NC(=O)c1ncnc(N)c1Cl)c1ncc(C(=O)Nc2cc(C(F)(F)F)c(Cl)cn2)s1 + CCn1c(-c2cccnc2C(C)OC)c2c3cc(ccc31)N1CCOC(CC(NC(=O)C(C(C)C)N(C)C(=O)C3(F)CCN(C(=O)C#CC(C)(C)N(C)C)CC3)C(=O)N3CCCC(N3)C(=O)OCC(C)(C)C2)C1
IC50 (second compound 0.000949 µM): < 31.6 nM | IC50 (second compound 0.003 µM): < 31.6 nM | IC50 (second compound 0.00949 µM): < 31.6 nM | IC50 (second compound 0.03 µM): < 31.6 nM | IC50 (second compound 0.0949 µM): < 31.6 nM | IC50 (second compound 0.3 µM): < 31.6 nM | viability, T/C [1]: 36.4% | viability, T/C [2]: 32.5% | viability, T/C [3]: 24.2% | viability, T/C [4]: 34.2% | viability, T/C (second compound 0.000949 µM, first compound 3.16 µM): 32.5% | viability, T/C (second compound 0.000949 µM, first compound 10 µM): 25.4% | viability, T/C [5]: 33% | viability, T/C [6]: 31.1% | viability, T/C [7]: 29.7% | viability, T/C [8]: 33.3% | viability, T/C (second compound 0.003 µM, first compound 3.16 µM): 31.2% | viability, T/C (second compound 0.003 µM, first compound 10 µM): 25.3% | viability, T/C [9]: 32.8% | viability, T/C [10]: 27.5% | viability, T/C [11]: 30.9% | viability, T/C [12]: 30.9% | viability, T/C (second compound 0.00949 µM, first compound 3.16 µM): 30.8% | viability, T/C (second compound 0.00949 µM, first compound 10 µM): 24.5% | viability, T/C [13]: 30.7% | viability, T/C [14]: 30.1% | viability, T/C [15]: 28.1% | viability, T/C [16]: 29.3% | viability, T/C (second compound 0.03 µM, first compound 3.16 µM): 26.9% | viability, T/C (second compound 0.03 µM, first compound 10 µM): 27.9% | viability, T/C [17]: 25.8% | viability, T/C [18]: 29.3% | viability, T/C [19]: 31.6% | viability, T/C [20]: 28.6% | viability, T/C (second compound 0.0949 µM, first compound 3.16 µM): 23.6% | viability, T/C (second compound 0.0949 µM, first compound 10 µM): 28.4% | viability, T/C [21]: 27.3% | viability, T/C [22]: 27.4% | viability, T/C [23]: 31% | viability, T/C [24]: 23.1% | viability, T/C (second compound 0.3 µM, first compound 3.16 µM): 26.3% | viability, T/C (second compound 0.3 µM, first compound 10 µM): 27.4%

C=CC(=O)N1CCN(c2nc(OCC3CCCN3C)nc3c(F)c(-c4nc(N)cc(C)c4C(F)(F)F)c(Cl)cc23)C(C)C1 (stereo not given) + CCn1c(-c2cccnc2C(C)OC)c2c3cc(ccc31)N1CCOC(CC(NC(=O)C(C(C)C)N(C)C(=O)C3(F)CCN(C(=O)C#CC(C)(C)N(C)C)CC3)C(=O)N3CCCC(N3)C(=O)OCC(C)(C)C2)C1
IC50 (second compound 0.000949 µM): < 3.16 nM | IC50 (second compound 0.003 µM): < 3.16 nM | IC50 (second compound 0.00949 µM): < 3.16 nM | IC50 (second compound 0.03 µM): < 3.16 nM | IC50 (second compound 0.0949 µM): < 3.16 nM | IC50 (second compound 0.3 µM): < 3.16 nM | viability, T/C (second compound 0.000949 µM, first compound 0.00316 µM): 34.7% | viability, T/C (second compound 0.000949 µM, first compound 0.01 µM): 35.5% | viability, T/C [1]: 24.3% | viability, T/C [2]: 28.4% | viability, T/C [3]: 29.2% | viability, T/C [4]: 25.6% | viability, T/C (second compound 0.003 µM, first compound 0.00316 µM): 33.6% | viability, T/C (second compound 0.003 µM, first compound 0.01 µM): 28.5% | viability, T/C [5]: 25.6% | viability, T/C [6]: 29.4% | viability, T/C [7]: 31.5% | viability, T/C [8]: 27.6% | viability, T/C (second compound 0.00949 µM, first compound 0.00316 µM): 26.8% | viability, T/C (second compound 0.00949 µM, first compound 0.01 µM): 26.7% | viability, T/C [9]: 37.2% | viability, T/C [10]: 30.9% | viability, T/C [11]: 27.7% | viability, T/C [12]: 25.9% | viability, T/C (second compound 0.03 µM, first compound 0.00316 µM): 30.2% | viability, T/C (second compound 0.03 µM, first compound 0.01 µM): 30.5% | viability, T/C [13]: 35% | viability, T/C [14]: 27.2% | viability, T/C [15]: 27.1% | viability, T/C [16]: 29.7% | viability, T/C (second compound 0.0949 µM, first compound 0.00316 µM): 28.5% | viability, T/C (second compound 0.0949 µM, first compound 0.01 µM): 31.4% | viability, T/C [17]: 26.9% | viability, T/C [18]: 27.3% | viability, T/C [19]: 24.9% | viability, T/C [20]: 32.7% | viability, T/C (second compound 0.3 µM, first compound 0.00316 µM): 25.8% | viability, T/C (second compound 0.3 µM, first compound 0.01 µM): 30% | viability, T/C [21]: 24.4% | viability, T/C [22]: 26.2% | viability, T/C [23]: 26% | viability, T/C [24]: 29.3%

NC1c2ccccc2OC12CCN(c1cnc3c(N4CCCc5ncccc54)n[nH]c3n1)CC2 (stereo not given)
viability, T/C (compound 0.0316 µM): 72.5% [middle of 4 runs] | viability, T/C (compound 0.1 µM): 66.6% [middle of 4 runs] | viability, T/C (compound 0.316 µM): 44.9% [middle of 4 runs] | viability, T/C (compound 1 µM): 42.2% [middle of 4 runs] | viability, T/C (compound 3.16 µM): 41.3% [middle of 4 runs] | viability, T/C (compound 10 µM): 44.1% [middle of 4 runs]
